Laboratory results from ChEMBL document CHEMBL1154382, “Preliminary SAR analysis of novel antiproliferative N(6),5'-bis-ureidoadenosine derivatives” (2009).

Experiments:
Type in all cases: functional
Conditions in all cases: values are per cent of control
HT-29 = assay: Antiproliferative activity against human HT-29 cells at 10 uM assessed as cell growth inhibition relative to control
SK-MEL-28 = assay: Antiproliferative activity against human SK-MEL-28 cells at 10 uM assessed as cell growth inhibition relative to control
MOLT-4 = assay: Antiproliferative activity against human MOLT4 cells at 10 uM assessed as cell growth inhibition relative to control
SW-620 = assay: Antiproliferative activity against human SW620 cells at 10 uM assessed as cell growth inhibition relative to control
SNB-19 = assay: Antiproliferative activity against human SNB19 cells at 10 uM assessed as cell growth inhibition relative to control
NCI-H460 = assay: Antiproliferative activity against human NCI-H460 cells at 10 uM assessed as cell growth inhibition relative to control
ACHN = assay: Antiproliferative activity against human ACHN cells at 10 uM assessed as cell growth inhibition relative to control
SK-OV-3 = assay: Antiproliferative activity against human SKOV3 cells at 10 uM assessed as cell growth inhibition relative to control
CAKI-1 = assay: Antiproliferative activity against human Caki1 cells at 10 uM assessed as cell growth inhibition relative to control
K562 = assay: Antiproliferative activity against human K562 cells at 10 uM assessed as cell growth inhibition relative to control
DU-145 = assay: Antiproliferative activity against human DU145 cells at 10 uM assessed as cell growth inhibition relative to control
MDA-MB-468 = assay: Antiproliferative activity against human MDA-MB-468 cells at 10 uM assessed as cell growth inhibition relative to control
HCT-116 = assay: Antiproliferative activity against human HCT116 cells at 10 uM assessed as cell growth inhibition relative to control
HCC 2998 = assay: Antiproliferative activity against human HCC2998 cells at 10 uM assessed as cell growth inhibition relative to control
786-0 = assay: Antiproliferative activity against human 786-0 cells at 10 uM assessed as cell growth inhibition relative to control
NCI-H522 = assay: Antiproliferative activity against human NCI-H522 cells at 10 uM assessed as cell growth inhibition relative to control
RXF 393 = assay: Antiproliferative activity against human RXF393 cells at 10 uM assessed as cell growth inhibition relative to control
U-251 = assay: Antiproliferative activity against human U251 cells at 10 uM assessed as cell growth inhibition relative to control
IGROV-1 = assay: Antiproliferative activity against human IGROV1 cells at 10 uM assessed as cell growth inhibition relative to control
OVCAR-4 = assay: Antiproliferative activity against human OVCAR4 cells at 10 uM assessed as cell growth inhibition relative to control
[1] = Antiproliferative activity against human […] cells at 10 uM assessed as cell growth inhibition relative to control
TK-10 = assay: Antiproliferative activity against human TK10 cells at 10 uM assessed as cell growth inhibition relative to control
UO-31 = assay: Antiproliferative activity against human UO31 cells at 10 uM assessed as cell growth inhibition relative to control
SK-MEL-5 = assay: Antiproliferative activity against human SK-MEL-5 cells at 10 uM assessed as cell growth inhibition relative to control
LOX IMVI = assay: Antiproliferative activity against human LOXIMVI cells at 10 uM assessed as cell growth inhibition relative to control
T47D = assay: Antiproliferative activity against human T47D cells at 10 uM assessed as cell growth inhibition relative to control
HOP-92 = assay: Antiproliferative activity against human HOP92 cells at 10 uM assessed as cell growth inhibition relative to control
EKVX = assay: Antiproliferative activity against human EKVX cells at 10 uM assessed as cell growth inhibition relative to control
SNB-75 = assay: Antiproliferative activity against human SNB75 cells at 10 uM assessed as cell growth inhibition relative to control
COLO 205 = assay: Antiproliferative activity against human COLO205 cells at 10 uM assessed as cell growth inhibition relative to control
SK-MEL-2 = assay: Antiproliferative activity against human SK-MEL-2 cells at 10 uM assessed as cell growth inhibition relative to control
SF-295 = assay: Antiproliferative activity against human SF295 cells at 10 uM assessed as cell growth inhibition relative to control
NCI-H23 = assay: Antiproliferative activity against human NCI-H23 cells at 10 uM assessed as cell growth inhibition relative to control
Malme-3M = assay: Antiproliferative activity against human MALME-3M cells at 10 uM assessed as cell growth inhibition relative to control
NCI-H322M = assay: Antiproliferative activity against human NCI-H322M cells at 10 uM assessed as cell growth inhibition relative to control
OVCAR-3 = assay: Antiproliferative activity against human OVCAR-3 cells at 10 uM assessed as cell growth inhibition relative to control
OVCAR-8 = assay: Antiproliferative activity against human OVCAR8 cells at 10 uM assessed as cell growth inhibition relative to control
SF-268 = assay: Antiproliferative activity against human SF268 cells at 10 uM assessed as cell growth inhibition relative to control
OVCAR-5 = assay: Antiproliferative activity against human OVCAR5 cells at 10 uM assessed as cell growth inhibition relative to control
UACC-257 = assay: Antiproliferative activity against human UACC257 cells at 10 uM assessed as cell growth inhibition relative to control
A498 = assay: Antiproliferative activity against human A498 cells at 10 uM assessed as cell growth inhibition relative to control
BT-549 = assay: Antiproliferative activity against human BT549 cells at 10 uM assessed as cell growth inhibition relative to control
SN12C = assay: Antiproliferative activity against human SN12C cells at 10 uM assessed as cell growth inhibition relative to control
NCI-H226 = assay: Antiproliferative activity against human NCI-H226 cells at 10 uM assessed as cell growth inhibition relative to control
A549 = assay: Antiproliferative activity against human A549 cells at 10 uM assessed as cell growth inhibition relative to control
UACC-62 = assay: Antiproliferative activity against human UACC62 cells at 10 uM assessed as cell growth inhibition relative to control
MCF7 = assay: Antiproliferative activity against human MCF7 cells at 10 uM assessed as cell growth inhibition relative to control
SF-539 = assay: Antiproliferative activity against human SF539 cells at 10 uM assessed as cell growth inhibition relative to control
CCRF-CEM = assay: Antiproliferative activity against human CCRF-CEM cells at 10 uM assessed as cell growth inhibition relative to control
PC-3 = assay: Antiproliferative activity against human PC3 cells at 10 uM assessed as cell growth inhibition relative to control
M14 = assay: Antiproliferative activity against human M14 cells at 10 uM assessed as cell growth inhibition relative to control
KM12 = assay: Antiproliferative activity against human KM12 cells at 10 uM assessed as cell growth inhibition relative to control
HOP-62 = assay: Antiproliferative activity against human HOP62 cells at 10 uM assessed as cell growth inhibition relative to control
MDA-MB-231 = assay: Antiproliferative activity against human MDA-MB-231 cells at 10 uM assessed as cell growth inhibition relative to control
HL-60(TB) = assay: Antiproliferative activity against human HL-60(TB) cells at 10 uM assessed as cell growth inhibition relative to control
[2] = Antiproliferative activity against human Hs 578T cells at 10 uM assessed as cell growth inhibition relative to control
HCT-15 = assay: Antiproliferative activity against human HCT15 cells at 10 uM assessed as cell growth inhibition relative to control

Question: For `CCOC(=O)C[C@H]1[C@@H](O[Si](C)(C)C(C)(C)C)[C@H](n2cnc3c(NC(=O)Nc4ccccc4)ncnc32)O[C@@H]1CN=[N+]=[N-]`, which growth, % of control at 10 µM (HT-29) is on record?
Answer: 104%

Question: And the growth, % of control at 10 µM (SK-MEL-28)?
Answer: 116%

Question: What about the growth, % of control at 10 µM (MOLT-4) of the same compound?
Answer: 79%

Question: And the growth, % of control at 10 µM (SW-620)?
Answer: 101%

Question: What about the growth, % of control at 10 µM (SNB-19) of the same compound?
Answer: 92%

Question: What about the growth, % of control at 10 µM (NCI-H460) of the same compound?
Answer: 104%

Question: What about the growth, % of control at 10 µM (ACHN) of the same compound?
Answer: 92%

Question: And the growth, % of control at 10 µM (SK-OV-3)?
Answer: 101%

Question: And the growth, % of control at 10 µM (CAKI-1)?
Answer: 87%

Question: And the growth, % of control at 10 µM (K562)?
Answer: 72%

Question: What about the growth, % of control at 10 µM (DU-145) of the same compound?
Answer: 105%

Question: And the growth, % of control at 10 µM (MDA-MB-468)?
Answer: 95%

Question: What about the growth, % of control at 10 µM (HCT-116) of the same compound?
Answer: 82%

Question: What about the growth, % of control at 10 µM (HCC 2998) of the same compound?
Answer: 121%

Question: And the growth, % of control at 10 µM (786-0)?
Answer: 89%

Question: What about the growth, % of control at 10 µM (NCI-H522) of the same compound?
Answer: 90%

Question: What about the growth, % of control at 10 µM (RXF 393) of the same compound?
Answer: 111%

Question: What about the growth, % of control at 10 µM (U-251) of the same compound?
Answer: 95%

Question: And the growth, % of control at 10 µM (IGROV-1)?
Answer: 93%

Question: What about the growth, % of control at 10 µM (OVCAR-4) of the same compound?
Answer: 66%

Question: What about the growth, % of control at 10 µM [1] of the same compound?
Answer: 75%

Question: And the growth, % of control at 10 µM (TK-10)?
Answer: 103%

Question: And the growth, % of control at 10 µM (UO-31)?
Answer: 83%

Question: What about the growth, % of control at 10 µM (SK-MEL-5) of the same compound?
Answer: 104%

Question: What about the growth, % of control at 10 µM (LOX IMVI) of the same compound?
Answer: 96%

Question: And the growth, % of control at 10 µM (T47D)?
Answer: 73%

Question: And the growth, % of control at 10 µM (HOP-92)?
Answer: 100%

Question: And the growth, % of control at 10 µM (EKVX)?
Answer: 89%

Question: What about the growth, % of control at 10 µM (SNB-75) of the same compound?
Answer: 73%

Question: And the growth, % of control at 10 µM (COLO 205)?
Answer: 114%

Question: What about the growth, % of control at 10 µM (SK-MEL-2) of the same compound?
Answer: 91%

Question: What about the growth, % of control at 10 µM (SF-295) of the same compound?
Answer: 94%

Question: And the growth, % of control at 10 µM (NCI-H23)?
Answer: 97%

Question: And the growth, % of control at 10 µM (Malme-3M)?
Answer: 97%

Question: What about the growth, % of control at 10 µM (NCI-H322M) of the same compound?
Answer: 99%

Question: What about the growth, % of control at 10 µM (OVCAR-3) of the same compound?
Answer: 111%

Question: And the growth, % of control at 10 µM (OVCAR-8)?
Answer: 98%

Question: And the growth, % of control at 10 µM (SF-268)?
Answer: 95%

Question: And the growth, % of control at 10 µM (OVCAR-5)?
Answer: 107%

Question: And the growth, % of control at 10 µM (UACC-257)?
Answer: 88%

Question: And the growth, % of control at 10 µM (A498)?
Answer: 121%

Question: And the growth, % of control at 10 µM (BT-549)?
Answer: 100%

Question: And the growth, % of control at 10 µM (SN12C)?
Answer: 81%

Question: What about the growth, % of control at 10 µM (NCI-H226) of the same compound?
Answer: 62%

Question: What about the growth, % of control at 10 µM (A549) of the same compound?
Answer: 103%

Question: What about the growth, % of control at 10 µM (UACC-62) of the same compound?
Answer: 83%

Question: What about the growth, % of control at 10 µM (MCF7) of the same compound?
Answer: 85%

Question: What about the growth, % of control at 10 µM (SF-539) of the same compound?
Answer: 89%

Question: What about the growth, % of control at 10 µM (CCRF-CEM) of the same compound?
Answer: 63%

Question: And the growth, % of control at 10 µM (PC-3)?
Answer: 64%

Question: And the growth, % of control at 10 µM (M14)?
Answer: 101%

Question: What about the growth, % of control at 10 µM (KM12) of the same compound?
Answer: 101%

Question: What about the growth, % of control at 10 µM (HOP-62) of the same compound?
Answer: 98%

Question: And the growth, % of control at 10 µM (MDA-MB-231)?
Answer: 95%

Question: And the growth, % of control at 10 µM (HL-60(TB))?
Answer: 51%

Question: And the growth, % of control at 10 µM [2]?
Answer: 92%

Question: What about the growth, % of control at 10 µM (HCT-15) of the same compound?
Answer: 84%
